Measurements reported in ChEMBL document CHEMBL4715829, “Heterodimeric Rifampicin-Tobramycin conjugates break intrinsic resistance of Pseudomonas aeruginosa to doxycycline and chloramphenicol in vitro and in a Galleria mellonella in vivo model” (Eur J Med Chem, 2019).

Columns and labels:
Pseudomonas aeruginosa [1] = assay: Antibacterial activity against Pseudomonas aeruginosa 259-96918 assessed as fractional inhibitory concentration incubated for 18 hrs in presence of doxycycline by broth microdilution assay; type: functional
Pseudomonas aeruginosa [2] = assay: Antibacterial activity against Pseudomonas aeruginosa 101243 assessed as potentiation of chloramphenicol-induced antibacterial activity by measuring chloramphenicol MIC at 9.8 uM incubated for 18 hrs in presence of chloramphenicol by broth microdilution assay (reference value: 1 ug/ml); type: functional
Pseudomonas aeruginosa [3] = assay: Antibacterial activity against Pseudomonas aeruginosa 101885 assessed as fractional inhibitory concentration incubated for 18 hrs in presence of minocycline by broth microdilution assay; type: functional
Pseudomonas aeruginosa [4] = assay: Antibacterial activity against Pseudomonas aeruginosa 260-97103 infected in Galleria mellonella larvae assessed as survival of larvae at 75 mg/kg treated at 3 hrs post-infection in presence of doxycycline and measured after 24 hrs relative to control; type: functional
Pseudomonas aeruginosa [5] = assay: Antibacterial activity against Pseudomonas aeruginosa 264-101354 assessed as potentiation of doxycycline-induced antibacterial activity by measuring doxycycline MIC at 9.8 uM incubated for 18 hrs in presence of doxycycline by broth microdilution assay (reference value: 64 ug/ml); type: functional
Pseudomonas aeruginosa [6] = assay: Antibacterial activity against Pseudomonas aeruginosa 91433 assessed as potentiation of chloramphenicol-induced antibacterial activity by measuring chloramphenicol MIC at 9.8 uM incubated for 18 hrs in presence of chloramphenicol by broth microdilution assay (reference value: 8 ug/ml); type: functional
Pseudomonas aeruginosa [7] = assay: Potentiation of doxycycline-induced antibacterial activity against wild type Pseudomonas aeruginosa PAO1 assessed as fold change in doxycycline MIC at <=9.8 uM incubated for 18 hrs in presence of doxycycline by broth microdilution assay; type: functional; details: dose microM <=9.8
Pseudomonas aeruginosa [8] = assay: Antibacterial activity against Pseudomonas aeruginosa 101885 assessed as fractional inhibitory concentration incubated for 18 hrs in presence of rifampicin by broth microdilution assay; type: functional
Pseudomonas aeruginosa [9] = assay: Antibacterial activity against Pseudomonas aeruginosa 262-101856 assessed as potentiation of chloramphenicol-induced antibacterial activity by measuring chloramphenicol MIC at 9.8 uM incubated for 18 hrs in presence of chloramphenicol by broth microdilution assay (reference value: 2048 ug/ml); type: functional
Pseudomonas aeruginosa [10] = assay: Potentiation of doxycycline-induced antibacterial activity against Pseudomonas aeruginosa 91433 assessed as fold change in doxycycline MIC at 9.8 uM incubated for 18 hrs in presence of doxycycline by broth microdilution assay relative to control; type: functional
Pseudomonas aeruginosa [11] = assay: Potentiation of doxycycline-induced antibacterial activity against Pseudomonas aeruginosa PAO200 harboring mexA-mexB-oprM deletion mutant assessed as fold change in doxycycline MIC at <=9.8 uM incubated for 18 hrs in presence of doxycycline by broth microdilution assay; type: functional; details: dose microM <=9.8
[12] = Toxicity in Galleria mellonella larvae assessed as larval survival at 100 mg/kg measured after 96 hrs; type: organism-based; details: in vivo
Pseudomonas aeruginosa [13] = assay: Antibacterial activity against Pseudomonas aeruginosa 260-97103 infected in Galleria mellonella larvae assessed as survival of larvae at 100 mg/kg treated at 3 hrs post-infection in presence of chloramphenicol and measured after 24 hrs relative to control; type: functional
Pseudomonas aeruginosa [14] = assay: Antibacterial activity against Pseudomonas aeruginosa 260-97103 infected in Galleria mellonella larvae assessed as survival of larvae at 75 mg/kg treated at 3 hrs post-infection in presence of chloramphenicol and measured after 24 hrs relative to control; type: functional
Pseudomonas aeruginosa [15] = assay: Antibacterial activity against Pseudomonas aeruginosa 114228 assessed as fractional inhibitory concentration incubated for 18 hrs in presence of minocycline by broth microdilution assay; type: functional
Pseudomonas aeruginosa [16] = assay: Potentiation of chloramphenicol-induced antibacterial activity against Pseudomonas aeruginosa 100036 assessed as fold change in chloramphenicol MIC at 9.8 uM incubated for 18 hrs in presence of chloramphenicol by broth microdilution assay relative to control; type: functional
Pseudomonas aeruginosa [17] = assay: Potentiation of chloramphenicol-induced antibacterial activity against Pseudomonas aeruginosa 101885 assessed as fold change in chloramphenicol MIC at 9.8 uM incubated for 18 hrs in presence of chloramphenicol by broth microdilution assay relative to control; type: functional
Pseudomonas aeruginosa [18] = assay: Antibacterial activity against Pseudomonas aeruginosa 264-101354 assessed as fractional inhibitory concentration index incubated for 18 hrs in presence of rifampicin by broth microdilution assay; type: functional
Pseudomonas aeruginosa [19] = assay: Potentiation of chloramphenicol-induced antibacterial activity against Pseudomonas aeruginosa 101243 assessed as fold change in chloramphenicol MIC at 9.8 uM incubated for 18 hrs in presence of chloramphenicol by broth microdilution assay relative to control; type: functional
Pseudomonas aeruginosa [20] = assay: Potentiation of doxycycline-induced antibacterial activity against Pseudomonas aeruginosa 262-101856 assessed as fold change in doxycycline MIC at 9.8 uM incubated for 18 hrs in presence of doxycycline by broth microdilution assay relative to control; type: functional
Pseudomonas aeruginosa [21] = assay: Potentiation of doxycycline-induced antibacterial activity against Pseudomonas aeruginosa 101885 assessed as fold change in doxycycline MIC at 9.8 uM incubated for 18 hrs in presence of doxycycline by broth microdilution assay relative to control; type: functional
Pseudomonas aeruginosa [22] = assay: Antibacterial activity against Pseudomonas aeruginosa 264-101354 assessed as fractional inhibitory concentration incubated for 18 hrs in presence of tigecycline by broth microdilution assay; type: functional
Pseudomonas aeruginosa [23] = assay: Antibacterial activity against Pseudomonas aeruginosa 264-101354 assessed as fractional inhibitory concentration index incubated for 18 hrs in presence of minocycline by broth microdilution assay; type: functional
Pseudomonas aeruginosa [24] = assay: Antibacterial activity against wild type Pseudomonas aeruginosa PAO1 assessed as reduction in bacterial growth by measuring doxycycline MIC at 8 ug/ml incubated for 18 hrs in presence of doxycycline by broth microdilution assay (reference value: 16 ug/ml); type: functional; details: dose 8 µg/ml
Pseudomonas aeruginosa [25] = assay: Antibacterial activity against Pseudomonas aeruginosa 260-97103 assessed as reduction in bacterial growth by measuring doxycycline MIC at 2 ug/ml incubated for 18 hrs in presence of doxycycline by broth microdilution assay (reference value: 16 ug/ml); type: functional; details: dose 2 µg/ml
Pseudomonas aeruginosa [26] = assay: Antibacterial activity against Pseudomonas aeruginosa 264-101354 assessed as reduction in bacterial growth by measuring chloramphenicol MIC at 4 ug/ml incubated for 18 hrs in presence of chloramphenicol by broth microdilution assay (reference value: 4096 ug/ml); type: functional; details: dose 4 µg/ml
Pseudomonas aeruginosa [27] = assay: Antibacterial activity against Pseudomonas aeruginosa 262-101856 assessed as potentiation of doxycycline-induced antibacterial activity by measuring doxycycline MIC at 7.6 uM incubated for 18 hrs in presence of doxycycline by broth microdilution assay (reference value: 1024 ug/ml); type: functional
Pseudomonas aeruginosa [28] = assay: Antibacterial activity against Pseudomonas aeruginosa 100036 assessed as potentiation of chloramphenicol-induced antibacterial activity by measuring chloramphenicol MIC at 7.6 uM incubated for 18 hrs in presence of chloramphenicol by broth microdilution assay (reference value: 1024 ug/ml); type: functional
Pseudomonas aeruginosa [29] = assay: Antibacterial activity against Pseudomonas aeruginosa 101885 assessed as potentiation of chloramphenicol-induced antibacterial activity by measuring chloramphenicol MIC at 7.6 uM incubated for 18 hrs in presence of chloramphenicol by broth microdilution assay (reference value: 512 ug/ml); type: functional
Klebsiella pneumoniae = assay: Potentiation of doxycycline-induced antibacterial activity against Klebsiella pneumoniae ATCC 16381 assessed as fold change in doxycycline MIC at 7.6 uM incubated for 18 hrs in presence of doxycycline by broth microdilution assay relative to control; type: functional

Which FIC (Pseudomonas aeruginosa [1]) does the source give for `NC[C@H]1O[C@H](O[C@H]2[C@H](O)[C@@H](O[C@H]3O[C@H](CO)[C@@H](O)[C@H](N)[C@H]3O)[C@H](N)C[C@@H]2N)[C@H](N)C[C@@H]1O` [TOBRAMYCIN] here?
The FIC was 0.125.

For `CO[C@H]1/C=C/O[C@@]2(C)Oc3c(C)c(O)c4c(O)c(c(/C=N/N5CCN(Cc6cn(CCCCCCO[C@@H]7[C@@H](O[C@H]8O[C@H](CO)[C@@H](O)[C@H](N)[C@H]8O)[C@H](N)C[C@H](N)[C@H]7O[C@H]7O[C@H](CN)[C@@H](O)C[C@H]7N)nn6)CC5)c(O)c4c3C2=O)NC(=O)/C(C)=C\C=C\[C@H](C)[C@H](O)[C@@H](C)[C@@H](O)[C@@H](C)[C@H](OC(C)=O)[C@@H]1C.Cl.Cl.Cl.Cl.Cl`, which MIC (Pseudomonas aeruginosa [2]) is on record?
Its MIC is 0.125 µg/mL.

What about the FIC (Pseudomonas aeruginosa [3]) of the same compound?
Its FIC is 0.063.

And the survival at 75 mg/kg (Pseudomonas aeruginosa [4])?
Its survival at 75 mg/kg is 55%.

And the MIC (Pseudomonas aeruginosa [5])?
Its MIC is 0.125 µg/mL.

And the MIC (Pseudomonas aeruginosa [6])?
Its MIC is 2 µg/mL.

What about the “fold change (FC)” value (Pseudomonas aeruginosa [7]) of the same compound?
The value was 32.

And the FIC (Pseudomonas aeruginosa [8])?
Its FIC is 0.063.

And the MIC (Pseudomonas aeruginosa [9])?
Its MIC is 128 µg/mL.

And the “fold change (FC)” value (Pseudomonas aeruginosa [10])?
Its value is 4.

What about the “fold change (FC)” value (Pseudomonas aeruginosa [11]) of the same compound?
The value was 8.

What about the survival at 96 h [12] of the same compound?
The survival at 96 h was 100%.

What about the survival at 100 mg/kg (Pseudomonas aeruginosa [13]) of the same compound?
Its survival at 100 mg/kg is 45%.

What about the survival at 75 mg/kg (Pseudomonas aeruginosa [14]) of the same compound?
The survival at 75 mg/kg was 10%.

And the FIC (Pseudomonas aeruginosa [15])?
The FIC was <0.031.

What about the “fold change (FC)” value (Pseudomonas aeruginosa [16]) of the same compound?
Its value is 4.

What about the “fold change (FC)” value (Pseudomonas aeruginosa [17]) of the same compound?
The value was 4.

What about the “fractional inhibitory concentration index (FICI)” value (Pseudomonas aeruginosa [18]) of the same compound?
Its value is 0.27.

What about the “fold change (FC)” value (Pseudomonas aeruginosa [19]) of the same compound?
Its value is 4.

What about the “fold change (FC)” value (Pseudomonas aeruginosa [20]) of the same compound?
The value was 4.

And the “fold change (FC)” value (Pseudomonas aeruginosa [21])?
Its value is 4.

What about the FIC (Pseudomonas aeruginosa [22]) of the same compound?
The FIC was 0.063.

And the “fractional inhibitory concentration index (FICI)” value (Pseudomonas aeruginosa [23])?
Its value is 0.08.

Which results are given for `CO[C@H]1/C=C/O[C@@]2(C)Oc3c(C)c(O)c4c(O)c(c(/C=N/N5CCN(C)CC5)c(O)c4c3C2=O)NC(=O)/C(C)=C\C=C\[C@H](C)[C@H](O)[C@@H](C)[C@@H](O)[C@@H](C)[C@H](OC(C)=O)[C@@H]1C` [RIFAMPIN]?
MIC (Pseudomonas aeruginosa [24]): 16 µg/mL; MIC (Pseudomonas aeruginosa [25]): 16 µg/mL; MIC (Pseudomonas aeruginosa [26]): 4100 µg/mL

Which MIC (Pseudomonas aeruginosa [27]) does the source give for `CO[C@H]1/C=C/O[C@@]2(C)Oc3c(C)c(O)c4c(O)c(c(/C=N/N5CCN(Cc6cn(CCCCCCCCCCCCO[C@@H]7[C@@H](O[C@H]8O[C@H](CO)[C@@H](O)[C@H](N)[C@H]8O)[C@H](N)C[C@H](N)[C@H]7O[C@H]7O[C@H](CN)[C@@H](O)C[C@H]7N)nn6)CC5)c(O)c4c3C2=O)NC(=O)/C(C)=C\C=C\[C@H](C)[C@H](O)[C@@H](C)[C@@H](O)[C@@H](C)[C@H](OC(C)=O)[C@@H]1C.O=C(O)C(F)(F)F.O=C(O)C(F)(F)F.O=C(O)C(F)(F)F.O=C(O)C(F)(F)F.O=C(O)C(F)(F)F` here?
The MIC was 8 µg/mL.

What about the MIC (Pseudomonas aeruginosa [28]) of the same compound?
The MIC was 4 µg/mL.

What about the MIC (Pseudomonas aeruginosa [29]) of the same compound?
Its MIC is 4 µg/mL.

What about the “fold change (FC)” value (Klebsiella pneumoniae) of the same compound?
The value was 0.
